Values joined by “and” are separate entries in the source; they are usually repeats but may differ in a detail not shown here. Equal values may be shown once. Marks after values point to notes of the source that are not given here.
Experiments:
[1] = system: purified bovine brain tubulin; assay: In vitro microtubule assembly assay with pure (MAP-free) tubulin, light scattering OD400; type: biochemical; conditions: 9 uM and 27 uM
Description: Microtubule Assembly Assays. Microtubule seeds were synthesized by incubating purified bovine brain tubulin with 1 mM GTP, 10% glycerol and 10% DMSO at 35° C. for 30 minutes, followed by shearing by passing the assembled microtubules 6 times through a 27 gauge needle. Microtubule assembly was assayed by adding 27.5 ul of microtubule seeds to spectrophotometer cuvettes (maintained at 35° C.) containing 247.5 ul purified bovine brain tubulin in a PEM-100 buffer (100 mM Pipes pH=6.8, 1 mM […], 1 mM MgSO4) supplemented with 1 mM GTP (and drug where applicable) and monitoring the OD400 for 2 hours. Since the compounds are dissolved in DMSO and DMSO can have a significant effect on microtubule assembly, DMSO was added to all cuvettes so as to equal the largest volume of drug added to reactions. It should be noted that the initial velocity of the microtubule assembly reactions is so fast that one can not always catch the initial rise on the light scattering profile because it is occurring while samples are being prepared. However, all samples start at the same optical density, since they are identical with the exception of the drug being introduced.

[2] = system: P388 lymphocytic leukemia; assay: Murine P388 lymphocytic leukemia model (intraperitoneal transplantation), life span; type: in vivo, mouse; conditions: 10 mg/kg/d iv x7 qd
Description: Both male and female mice were used.
Preparation and Administration of Test Compounds.
To prepare cancer cells for the P388 murine lymphocytic leukemia model, ascites of a P388 leukemia-bearing mouse were removed under sterile condition. The ascites were diluted in normal saline (1:6 for ascites to normal saline) to prepare cell suspension. 0.2 mL of the cell suspension was then injected intraperitoneally. […] The life span of carrier mice was determined within 30 days. The life span ratio comparing to the negative control group of the carrier mice in each compound treatment group was calculated according to the formula: Life span ratio %=average life span for the compound treatment group/average life span for the negative control group×100% (4)

[3] = system: Bcap-37 human breast cancer; assay: Bcap-37 human breast cancer xenograft in nude mice, dosing from 24 h after transplantation (Example 3); type: in vivo
Text: (§1) Both male and female mice were used. […] Test control. […] Preparation and Administration of Test Compounds. […] For human tumor xenograft model, all used materials, including animal food, animal cage, supporting materials and apparatus contacted by animals, were high-pressure sterilized. Nude mice were maintained in laminar flow shelves under SPF condition. After tumor transplantation, mouse weight and tumor size in each compound dosage group were dynamically monitored and plotted.

[4] = system: HCT-8 human colon cancer; assay: HCT-8 human colon cancer xenograft in nude mice (Example 3); type: in vivo; conditions: 10 mg/kg/d iv x7 qd
Text: as §1

[5] = system: ao10/17 human ovarian cancer; assay: ao10/17 human ovarian cancer xenograft in nude mice (Example 4); type: in vivo; conditions: for Tumor volume (cm^3): 10 mg/kg iv x7 qd
Description: Only female mice were used in this study. […] The high, middle and low doses of ACEA100108 were 50, […] and 8 mg/kg/d, respectively.
Preparation and Administration of Test Compounds. […] The high, middle and low dose of compound ACEA100108 was 50, 20 and 8 mg/kg, respectively.
The tumor tissues were grounded in normal saline (1:6 for tumor volume to saline volume) and tumor cell suspensions were prepared in the normal saline.
For the human ovarian cancer xenograft model, all used materials, including animal food, animal cage, supporting materials and apparatus contacted by animals, were high-pressure sterilized. Nude mice were maintained in laminar flow shelves under SPF condition. After tumor transplantation, mouse weight and tumor size in each compound dosage group were dynamically monitored and plotted. The tumor size was determined by measuring the major axis (a) and minor axis (b) of the tumor, and tumor volume was calculated according to the equation (3) in Example 3.

[6] = system: mouse Lewis lung cancer; assay: In vivo antitumor efficacy, mouse Lewis lung cancer model, Example 3 (ACEA100108); conditions: 10 mg/kg/d iv x7 qd
Description: For human tumor xenograft models, cancer cells were passed twice in vivo before being transplanted into the nude mice for the study. Cultured human cancer cells in flask were first xenograft-transplanted in immunodeficient nude mice. After the cancer cells grew to a tumor of certain sizes in the nude mice, the tumor was removed form the nude mice and tumor tissues were dissected. The cell suspensions were prepared from the dissected tumor tissue and transplanted back to immunodeficient nude mice again (i.e. the second passage of cancer cells in human cancer xenograft-transplanted model). After the cancer cells grew to certain size, the tumor was removed from nude mice and the tumor tissues were dissected. The cell suspensions were prepared from dissected tissues and were used for the study of human cancer xenograft models described here.
Both male and female mice were used. However, for each experiment, animals of same sex were used. For the mouse transplanted tumor model, the numbers of animals tested were as follows: 10 for each dose group, 10 for positive control group and 20 for negative control group. For human tumor xenograft model, the numbers of animals tested were as follows: 6 for each dose group, 6 for positive control group and 12 for negative control group.
Test control. For negative control, each mouse was administered intravenously with the solvent only having the same volume and same concentration as those used in high dose ACEA100108 test, once a day, for 7 consecutive days. […] In a reference group, DBTS was administered intravenously at 50 mg/kg, once a day for 7 consecutive days.
Preparation and Administration of Test Compounds. […] Each time before use, this solution was diluted in normal saline to achieve desired ACEA100108 concentrations. Each mouse (about 20 g in weight) was administered intravenously with the compound solution of 0.5 mL at a controlled injection speed of 0.5 ml/0.5 min. 24 hrs after the tumor transplantation, intravenous injections of compound solutions into carrier mice were performed once a day, for consecutive 7 or 10 days.
Preparation of Tumor Cells for Transplantation and Determination of Compound Efficacy. To prepare the cancer cells for mouse Lewis lung cancer model, human breast cancer xenograft model and human colon cancer xenograft model, the fast growing tumors were first removed from the transplanted tumor mice. The tumor tissues were dissected and tumor cell suspensions were prepared in normal saline to have a concentration of 2-4×10^7 cells/ml. 0.2 ml of cell suspension was subcutaneously injected into the axillary region (right-side) of each mouse. […] Between two and four weeks after transplantation, mice were sacrificed and the transplanted tumors were removed from experimental mice.

[7] = 10 mg/kg iv x7 qd, 7 days after transplantation
[8] = 10 mg/kg/d iv x7 qd, vs solvent control

Cc1cccc(CSSSCc2cccc(C)c2)c1 [ACEA100116, di(m-methylbenzyl)trisulfide]
Effect on microtubule assembly [1]: promotes microtubule assembly

CC(=O)O[C@H]1C(=O)[C@@]2(C)[C@H]([C@H](OC(=O)c3ccccc3)[C@]3(O)C[C@H](OC(=O)[C@H](O)[C@@H](NC(=O)c4ccccc4)c4ccccc4)C(C)=C1C3(C)C)[C@]1(OC(C)=O)CO[C@@H]1C[C@@H]2O [Taxol, paclitaxel, reference compound]
animal No. beginning/end (survivors) [2]: 10/0 | Average life span X ± SD ([2]; observed within 30 days): 10.5 ± 1.18 | Mice with palpable tumor / total mice [3, 7]: 4/6†† | Tumor volume (cm^3) [3, 7]: 0.01 cm^3 | Tumor volume (cm^3) ([3]; 10 mg/kg iv x7 qd, 14 d): 0.065 ± 0.02 cm^3 | Tumor volume (cm^3) ([3]; 10 mg/kg iv x7 qd, 21 d): 0.249 ± 0.07 cm^3 | Tumor volume (cm^3) ([3]; 10 mg/kg iv x7 qd, 24 d (end)): 0.685 cm^3 and 0.685 ± 0.14 cm^3 | TV inhibition rate % T/C ([3]; 10 mg/kg/d iv x7 qd): 39.05% | Tumor weight ([3]; 10 mg/kg/d iv x7 qd): 0.88 ± 0.17 g | Body weight of mice ([3]; 10 mg/kg/d iv x7 qd, 0 day (beginning)): 18.1 g and 18.1 ± 1.1 g | Body weight of mice ([3]; 10 mg/kg/d iv x7 qd, 7 day): 19.7 ± 1 g | tumor inhibition rate % [3, 8]: 48.84% | TV inhibition rate % T/C [4]: 44.45% | Tumor weight [4]: 1.02 ± 0.11 g | Mice with palpable tumor / total mice ([4]; 7 day after transplantation): 6/6†† | Tumor volume (cm^3) ([4]; 7 day after transplantation): 0.01 cm^3 | Tumor volume (cm^3) ([4]; 14 d): 0.116 ± 0.03 cm^3 | Tumor volume (cm^3) ([4]; 25 d (end)): 0.694 cm^3 and 0.694 ± 0.15 cm^3 | tumor inhibition rate % ([4]; vs solvent control): 33.33% | Tumor volume (cm^3) ([5]; 7 D after transplantation): 0.01 cm^3 | Tumor volume (cm^3) ([5]; 14 d): 0.033 ± 0.02 cm^3 | Tumor volume (cm^3) ([5]; 21 d): 0.196 ± 0.03 cm^3 | Tumor volume (cm^3) ([5]; 24 d): 0.349 ± 0.08 cm^3 | Tumor weight ([5]; 10 mg/kg/d iv x7 qd): 0.77 ± 0.12 g | tumor inhibition rate % [5, 8]: 45.39% | Animal weight (g) beginning [6]: 20.4 g | Animal weight (g) end [6]: 23.8 g | Tumor weight [6]: 1.52 ± 0.15 g | Inhibition rate (%) ([6]; vs solvent control): 43.91%
